{
  "source": "patent US20230066286A1",
  "about": "“DEUTERATED TRYPTAMINE DERIVATIVES AND METHODS OF USE” (priority 2020, published 2023)",
  "key": {"[1]": {"assay": "Blood-to-plasma ratio (BPR), parent drug in brain and plasma of rats", "type": "in vivo, rat", "conditions": "% change vs. non-deuterated material", "procedure": "(§1) The key PK parameters (presented as a % change vs. non-deuterated materials) are presented in Table 3 to include half-life (T½), area under the curve (AUC), bioavailability (F) and blood-to-plasma ration (BPR). Pharmacokinetics of the deuterated tryptamines was studied in rats. In a typical experiment, run as a cassette dosing, two groups of 5 Wistar female rats (200-250 g) with surgically inserted jugular vein catheter (Charles River, Andover, MA) were fasted for 12 h and then administered 5 mg/kg of the deuterated and 5 mg/kg of the related non-deuterated analog, by oral gavage or via a catheter for each group. At time points 0, 15, 30, 60 min, and 2, 4, 8, and 24 h, the resulting plasma was analyzed for the parent molecule using LC/MS spectroscopy. Two separate groups of 5 animals were used for determining blood-to-plasma ratio (BPR). Each group was sacrificed at time points 15 and 30 min, respectively, and the concentration of the parent drug was determined in the […] and plasma by LC/MS spectroscopy."}, "5-HT1A [2]": {"target": "T1, 5-HT1A (Homo sapiens, UniProt P08908)", "T1 construct": "expressed in transfected cells; host or cells: CHO-K1 or HEK293", "T1 sequence (P08908 1-422)": "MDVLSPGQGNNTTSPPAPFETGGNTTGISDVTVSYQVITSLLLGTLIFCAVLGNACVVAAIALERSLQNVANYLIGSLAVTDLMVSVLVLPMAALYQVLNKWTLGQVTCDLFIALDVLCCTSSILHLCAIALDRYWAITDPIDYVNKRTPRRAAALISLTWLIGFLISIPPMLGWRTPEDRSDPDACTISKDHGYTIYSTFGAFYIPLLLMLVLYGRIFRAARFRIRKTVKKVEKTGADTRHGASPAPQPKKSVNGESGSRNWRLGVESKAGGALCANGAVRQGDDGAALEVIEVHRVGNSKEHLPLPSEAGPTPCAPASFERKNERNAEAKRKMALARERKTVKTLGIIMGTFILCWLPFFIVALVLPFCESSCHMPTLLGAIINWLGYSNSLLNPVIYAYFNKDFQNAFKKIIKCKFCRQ", "assay": "Receptor function assay, Gi stimulation (reduction in cAMP levels)", "type": "cell-based", "procedure": "Receptor Function Assays: 5-HT1A receptor-mediated Gi stimulation (reduction in cyclic adenosine monophosphate (cAMP) levels) and 5-HT2(A,B,C) receptor-mediated Gq stimulation (phosphoinositide hydrolysis leading to the production of inositol phosphate 1 (IP1))-canonical signaling pathways—were measured as previously described (Canal et al., 2013), for example, with a homogeneous time-resolved fluorescence (HTRF) capable microplate reader (e.g., Mithras LB 940, Berthold) using commercially-available kits employing Fluorescence Resonance Energy Transfer (FRET) technology (e.g., LANCE Ultra cAMP TR-FRET (PerkinElmer) and IP-One HTRF (Cisbio) kits). Briefly, CHO-K1 or HEK293 cells expressing serotonergic receptors were incubated with test compounds in stimulation buffer. After equilibration, the reaction was terminated with the donor and acceptor fluorescent conjugates in lysis buffer, and FRET was measured. Data were fit to non-linear curves to calculate potencies (e.g., EC50) and efficacies (e.g., EMAX), relative to positive controls (e.g., serotonin)."}, "5-HT1A [3]": {"target": "T1, 5-HT1A", "assay": "Receptor affinity assay, radioligand competition binding", "procedure": "Receptor Affinity Assays: 5-HT1A, 5-HT2(A,B,C) receptor affinities were determined by radioligand competition binding. Membranes from CHO-K1 or HEK293 cells expressing serotonergic receptors were collected and incubated in assay buffer with Kd concentrations of radioligands and tests compounds that compete for receptor binding sites. After equilibration, the reaction was terminated by collecting ligand-receptor-membrane complexes (Microbeta, PerkinElmer), and radioactivity was measured by a scintillation counter (Microbeta2, PerkinElmer). Data were fit to non-linear curves, and Ki values were calculated per the Cheng-Prusoff equation."}, "[4]": {"assay": "PK study in rats, cassette dosing", "type": "in vivo, rat", "conditions": "% change vs. non-deuterated material, 5 mg/kg", "procedure": "as §1"}},
  "data": [
    {"molecule": "[2H]C([2H])(Cc1c[nH]c2cccc(O)c12)N(C)C", "note": "[PI-α,α-d2]", "values": [
      {"measurement": "BPR, 15 min, deuterium kinetic isotope effect (% change)", "setting": "[1]; rats sacrificed at 15 min", "value": 100, "unit": "%"},
      {"measurement": "BPR, 30 min, deuterium kinetic isotope effect (% change)", "setting": "[1]; rats sacrificed at 30 min", "value": 150, "unit": "%"},
      {"measurement": "EC50", "setting": "5-HT1A [2]", "value": 200, "unit": "nM"},
      {"measurement": "Ki", "setting": "5-HT1A [3]", "value": 510, "unit": "nM"},
      {"measurement": "AUC, deuterium kinetic isotope effect (% change)", "setting": "[4]; oral gavage or via catheter", "value": 75, "unit": "%"},
      {"measurement": "T½, deuterium kinetic isotope effect (% change)", "setting": "[4]; oral gavage or via catheter", "value": 50, "unit": "%"},
      {"measurement": "bioavailability", "setting": "[4]; female, Wistar, rat, plasma, oral, read-out: F (bioavailability), deuterium kinetic isotope effect (% change)", "value": 45, "unit": "%"}
    ]}
  ]
}
